# Laboratory results from ChEMBL document CHEMBL5725996, “Heteroaryl substituted pyridyl compounds useful as kinase modulators” (2017).
# Biological target: T1, Interleukin-1 receptor-associated kinase 4 (Homo sapiens, UniProt Q9NWZ3)
# T1 sequence (Q9NWZ3 whole entry): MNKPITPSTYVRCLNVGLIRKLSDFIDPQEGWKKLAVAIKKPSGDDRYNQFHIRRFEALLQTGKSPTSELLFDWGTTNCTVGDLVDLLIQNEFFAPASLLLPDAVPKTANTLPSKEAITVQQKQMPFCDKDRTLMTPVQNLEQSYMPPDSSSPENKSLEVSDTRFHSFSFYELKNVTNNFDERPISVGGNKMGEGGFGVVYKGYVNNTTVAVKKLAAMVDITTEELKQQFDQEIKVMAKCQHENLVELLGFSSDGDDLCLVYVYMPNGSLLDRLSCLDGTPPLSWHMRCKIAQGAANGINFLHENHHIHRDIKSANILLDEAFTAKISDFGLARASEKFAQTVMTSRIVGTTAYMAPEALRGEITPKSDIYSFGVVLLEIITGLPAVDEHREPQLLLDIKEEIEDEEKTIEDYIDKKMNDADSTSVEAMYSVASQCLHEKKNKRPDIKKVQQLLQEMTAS
# Experiment: Inhibition Assay: The assays were performed in U-bottom 384-well plates. […] The reaction was initiated by the combination of IRAK4 with substrates and test compounds. The reaction mixture was incubated at room temperature for 60 min. and terminated by adding 45 μL of 35 mM EDTA to each sample. […] The final concentrations of reagents in the assays are ATP, 500 μM; FL-[…] peptide 1.5 μM; IRAK4, 0.6 nM; and DMSO, 1.6%.
row,SMILES,IC50
1,CS[C@H]1CC[C@H](NC(=O)c2cnc(Nc3ncc(C#N)cc3F)cc2NC(C)C)CC1,12.5 nM
2,CCNC(=O)[C@H]1CC[C@H](NC(=O)c2cnc(Nc3ncc(C#N)cc3F)cc2NC(C)C)CC1,9.4 nM
3,CNC(=O)[C@H]1CC[C@H](NC(=O)c2cnc(Nc3ccc(C#N)cn3)cc2NC(C)C)CC1,5.6 nM
4,CC(C)(O)[C@H](F)CNC(=O)c1cnc(Nc2ncncc2Cl)cc1NC1CC1,5.5 nM
5,CC(C)Nc1cc(Nc2ncc(C#N)cc2Cl)ncc1C(=O)NC1CCC(C(C)(C)O)CC1 (stereo unspecified),4.1 nM
6,CC(C)Nc1cc(Nc2ccc(C#N)cn2)ncc1C(=O)NC1CCC(O)(c2ccnn2C)CC1 (stereo unspecified),4.6 nM
7,COC[C@H](F)CNC(=O)c1cnc(Nc2ncc(C#N)cc2F)cc1NC(C)C,12.6 nM
8,CC(C)Nc1cc(Nc2nc(OC3CCNCC3)ncc2Cl)ncc1C(=O)NC[C@@H](F)C(C)(C)O,19.9 nM
9,CC(C)(O)[C@H](F)CNC(=O)c1cnc(Nc2ncc(C#N)cc2Cl)cc1NC1CCOCC1,2.1 nM
10,CC(C)(O)CNc1cc(Nc2ncc(C#N)cc2Cl)ncc1C(=O)NC[C@@H](F)C(C)(C)O,9.3 nM
11,CC(=O)N[C@H]1CC[C@H](NC(=O)c2cnc(Nc3ncncc3Cl)cc2NC(C)C)CC1,16.8 nM
